“And” between values parts separate entries of the source, which are not always exact repeats. Equal values may be shown once.
Experiments:
[1] = brain at 30 minutes; vs Be, Sc, V, Cr, Mn, Fe, Co, As, Se, Rb, Sr, Y, Zr, Tc, Ru; cited from earlier work
[2] = cited from earlier work
[3] = Pharmacokinetics of ^63Zn Citrate in blood and plasma of an Alzheimer's disease patient; assay type: in vivo, human
Method: Venous blood samples were taken in heparinized tubes after injection of radiotracer. The samples were centrifuged, and plasma separated. The curves show a rapid clearance of ^63Zn from the blood that is completed by 90 minutes. After this time, the concentrations of ^63Zn in both plasma and whole blood are relatively constant. The concentration of ^63Zn in whole-blood rises relative to plasma to reach equilibrium at around 90 minutes post-injection.

[4] = Pharmacokinetics of ^63Zn Citrate in cerebral cortical region of interest; assay type: in vivo, human; conditions: for Vascular clearance phase in cerebral cortical region of interest: post-injection
[5] = Biodistribution of ^63Zn citrate in normal mice; assay type: in vivo
Method: Uptake may be measured in units of Standardized Uptake Value (SUV)=(uptake/g tissue)/(injected dose/g body mass).
Biodistribution characteristics of ^63Zn citrate were investigated in male B6.SJL mice (n=4) (Jackson Laboratories, Bar Harbor, Me., USA) under the approval of the Mayo Clinic Institutional Animal Care and Use Committee. Animals were administered ^63Zn citrate (˜1.8-3.6 MBq) into a tail vein and euthanized at 60 minutes for biodistribution analysis. Tissues were weighed and counted for radioactivity. Biodistribution data were expressed as Standard Uptake Value (SUV)=(counts/g)tissue/(injected dose counts/wt. of mouse (g)).
Biodistribution data was expressed as mean±sd. Statistical comparison of analytical data between groups of runs was performed using the two-tailed Student's T-test. Statistical comparison of intracerebral regional uptake of ^63Zn was performed using ANOVA. P-values <0.05 were considered statistically significant.

[6] = Biodistribution of ^63Zn citrate in normal mice; assay type: in vivo; remark: listed apart in the source
[7] = PET images of ^63Zn Citrate in human subjects; assay type: in vivo
Text: High uptake is seen in liver, pancreas, spleen, intestines, and thyroid.

[8] = subject with Alzheimer's disease
[9] = mean of normal mice, 1 hour after IV
[10] = individual normal (Wild) mice 1-5, 1 hour after IV
[11] = individual normal (Wild) mice 3-5, 1 hour after IV
[12] = mean of normal mice, 1 hour after IV, listed as 63Zn
[13] = mean of normal mice, 1 hour after IV, listed as 63Zn Citrate

## [65Zn] [^65Zn]
[1]
  Zinc uptake in brain relative to the other metal ions measured: several fold higher

## CN(C)Cc1ccc2c(Cl)cc(Cl)c(O)c2n1 [PBT2]
[2]; AD patients treated for a 12-week period
  Levels of AβO and p-Tau in the cerebrospinal fluid (CSF): significantly decreased
[2]; AD patients, 12-week period, highest dose level (250 mg daily)
  Cognitive test scores: significant improvement

## O=C([O-])CC(O)(CC(=O)[O-])C(=O)[O-].O=C([O-])CC(O)(CC(=O)[O-])C(=O)[O-].[63Zn+2].[63Zn+2].[63Zn+2] [^63Zn citrate]
[3]; post-injection
  Time at which whole-blood concentration relative to plasma reaches equilibrium: around 90 minutes
[3]; venous blood samples after injection
  Time by which clearance from the blood is completed: ≤ 90 min
[4]; healthy elderly subject
  Clearance from the cortical brain region between 50 minutes and 90 minutes: little clearance
  Vascular clearance phase in cerebral cortical region of interest: rapid vascular clearance phase in the first minute
[4]; [8]
  Clearance from the cortical brain region between 50 minutes and 90 minutes: little clearance
  Vascular clearance phase in cerebral cortical region of interest: rapid vascular clearance phase in the first minute
[5]; [9]
  SUV, Kidney, Average: 4.2±1.3 SUV and 4.21 ± 1.30 SUV
[5]; normal mice, 1 hour
  Differences in SUVs between intracerebral regions (ANOVA): did not show statistically significant differences
[5]; normal mice, 1 hour after IV
  Uptake in pancreas, liver, kidneys, upper intestines, prostate and seminal vesicles (in words): high uptake
[5]; normal mice, 1 hour after IV, span over brain regions
  Uptake in brain regions (regional SUVs): 0.2-0.5 SUV
[5]; normal mice, 60 minutes
  Murine brain uptake (in words): moderately low, but significant
[6]; five normal male mice, IV, 1 hour
  Brain penetration (in words): brain penetrant
[6]; [10]
  SUV, Bladder: 1.27 SUV and 3.66 SUV and 1.13 SUV and 0.73 SUV and 0.18 SUV
  SUV, Blood: 0.47 SUV and 0.36 SUV and 0.94 SUV and 0.69 SUV and 0.38 SUV
  SUV, Bone: 0.72 SUV and 0.5 SUV and 1.11 SUV (2×) and 0.38 SUV
  SUV, Brain Stem: 0.25 SUV (2×) and 0.34 SUV and 0.32 SUV and 0.11 SUV
  SUV, Caudate Nuclei: 0.34 SUV and 0.23 SUV and 0.57 SUV and 0.63 SUV and 0.09 SUV
  SUV, Cerebellum: 0.27 SUV (2×) and 0.38 SUV and 0.49 SUV and 0.13 SUV
  SUV, Cortex: 0.2 SUV (2×) and 0.19 SUV and 0.27 SUV and 0.09 SUV
  SUV, Heart: 1.11 SUV (2×) and 1.47 SUV and 1.1 SUV and 0.82 SUV
  SUV, Hippocampus: 0.28 SUV and 0.24 SUV and 0.88 SUV and 0.87 SUV and 0.12 SUV
  SUV, Kidney: 3.8 SUV and 4.32 SUV and 6.01 SUV and 4.49 SUV and 2.42 SUV
  SUV, Liver: 6.18 SUV and 5.27 SUV and 8.72 SUV and 6.29 SUV and 3.4 SUV
  SUV, Lung: 2.67 SUV and 1.8 SUV and 2.54 SUV and 2.19 SUV and 1.13 SUV
  SUV, Muscle: 0.2 SUV and 0.19 SUV and 0.31 SUV and 0.26 SUV and 0.1 SUV
  SUV, Pancreas: 10.67 SUV and 5.25 SUV and 11.95 SUV and 10.68 SUV and 5.33 SUV
  SUV, Spleen: 2.37 SUV and 1.8 SUV and 3.71 SUV and 2.62 SUV and 0.97 SUV
  SUV, Thalamus: 0.29 SUV and 0.25 SUV and 0.38 SUV and 0.28 SUV and 0.11 SUV
  SUV, Upper Intestine: 3.02 SUV and 2.99 SUV and 7.66 SUV and 6.46 SUV and 3.47 SUV
  SUV, Whole Brain: 0.25 SUV and 0.23 SUV and 0.35 SUV and 0.3 SUV and 0.1 SUV
[6]; [11]
  SUV, Prostate: 0.47 SUV and 0.85 SUV and 0.44 SUV
  SUV, Seminal Vesicle: 1.397 SUV and 2.588 SUV and 1.09 SUV
[6]; [9]
  SUV, Bladder, Average: 1.39 SUV
  SUV, Blood, Average: 0.57 ± 0.25 SUV
  SUV, Bone, Average: 0.76 ± 0.34 SUV
  SUV, Brain Stem, Average: 0.25 ± 0.09 SUV
  SUV, Caudate Nuclei, Average: 0.37 ± 0.23 SUV
  SUV, Cerebellum, Average: 0.31 ± 0.14 SUV
  SUV, Cortex, Average: 0.19 ± 0.07 SUV
  SUV, Heart, Average: 1.12 ± 0.23 SUV
  SUV, Hippocampus, Average: 0.48 ± 0.37 SUV
  SUV, Liver, Average: 6.0±1.9 SUV and 5.97 ± 1.92 SUV
  SUV, Lung, Average: 2.06 ± 0.62 SUV
  SUV, Muscle, Average: 0.21 ± 0.08 SUV
  SUV, Pancreas, Average: 8.8±3.2 SUV and 8.78 ± 3.22 SUV
  SUV, Prostate, Average: 0.58 ± 0.23 SUV
  SUV, Seminal Vesicle, Average: 1.69 ± 0.79 SUV
  SUV, Spleen, Average: 2.30 ± 1.01 SUV
  SUV, Thalamus, Average: 0.26 ± 0.10 SUV
  SUV, Upper Intestine, Average: 4.7±2.1 SUV and 4.72 ± 2.18 SUV
  SUV, Whole Brain, Average: 0.24 ± 0.09 SUV
[6]; [12]
  SUV, Pancreas, Average: 8.8±3.2 SUV
  SUV, Whole Brain, Average: 0.24±0.09 SUV
[6]; [13]
  SUV, Blood, Average: 0.57 SUV
  SUV, Bone, Average: 0.76 SUV
  SUV, Brain Stem, Average: 0.25 SUV
  SUV, Caudate Nuclei, Average: 0.37 SUV
  SUV, Cerebellum, Average: 0.31 SUV
  SUV, Cortex, Average: 0.19 SUV
  SUV, Heart, Average: 1.12 SUV
  SUV, Hippocampus, Average: 0.48 SUV
  SUV, Kidney, Average: 4.21 SUV
  SUV, Liver, Average: 5.97 SUV
  SUV, Lung, Average: 2.06 SUV
  SUV, Muscle, Average: 0.21 SUV
  SUV, Pancreas, Average: 8.78 SUV
  SUV, Prostate, Average: 0.58 SUV
  SUV, Seminal Vesicle, Average: 1.69 SUV
  SUV, Spleen, Average: 2.3 SUV
  SUV, Thalamus, Average: 0.26 SUV
  SUV, Upper Intestine, Average: 4.72 SUV
  SUV, Whole Brain, Average: 0.24 SUV
[7]; Alzheimer's disease subject
  Uptake in cerebral cortex, prostate, pituitary gland, and salivary glands (PET): Moderate to low uptake
  Uptake in liver, pancreas, spleen, intestines, and thyroid (PET): High uptake
[7]; healthy elderly human subject
  Uptake in cerebral cortex, pituitary gland, and salivary glands (PET): Moderate to low uptake
  Uptake in liver, pancreas, spleen, intestines, and thyroid (PET): High uptake
